{
  "source": "paper PMC12188386",
  "about": "“Selective CBP/EP300 Bromodomain Inhibitors: Novel Epigenetic Tools to Counter TNF-α-Driven Inflammation” (JACS Au, 2025)",
  "key": {"MRC5 cells": {"system": "MRC5 cells", "test": "viability assay (resazurin)", "assay_type": "cell-based", "conditions": "three-day treatment, concentration resulting in 70 % viability", "experimental": "MRC5 (2x10^3 cells/well) or THP-1 (8x10^3 cells/well) cells were plated onto 96 well plates and treated with compounds at a final DMSO concentration of 0.5 % (MRC5) or 0.1 % (THP-1).\nAfter 3 days of treatment, resazurin (Acros Organics) was added at a final concentration of 86 μ and incu ated for 2h15 (MRC5) or 3 h (THP-1). Fluorescence (ex. 560 nm, em. 590 nm) was read using a SpectraMax M5 (Molecular devices). GI30 values were calculated as the compound concentration resulting in 70 % viability compared to DMSO treated controls using a nonlinear regression fit using GraphPad Prism with the following equation: (Y=Bottom + (100-Bottom)/(1+(IC50/X)^HillSlope)). […]\nAfter 1.5 h, mice were injected with 10 µL of the prepared CAPTISOL […]\nfoodpad and also intraperitoneally (for i.p. injection, the 10 µL of CAPTISOL solution was diluted to a final volume of 100 µL using PBS). Organs were collected 5 h after TNF-α […]\nLEGENDPlexTM assays (Mouse Pro-inflammatory Chemokine Panel and Mouse Inflammation Panel; Biolegend) were performed to monitor cytokine/chemokine expression. Briefly, popliteal LNs were collected and carefully disrupted in […] ice-cold phosphate buffer, minimizing cell rupture. The suspension was centrifuged at 1,500 rpm for 5 min, and the […]"}, "panel of 32 bromodomains": {"system": "panel of 32 bromodomains", "test": "bromoMAX BROMOscan panel", "assay_type": "binding", "conditions": "1 µM", "experimental": "(§1) was used as the calibration curve. To obtain saturated solutions of the compounds of interest, in duplicates 4.4 µL of a 10 or 5 mM stock in DMSO was added to 436 µL Buffer (PBS, pH = 7.4), to give a final concentration of 100 or 50 µM. Samples were incubated on a shaker (500 rpm) at 37°C for 90 minutes and then filtered (Millex-GV 13 mm, 0.22 µm). 304 µL of the filtrate was mixed with 76 µL of acetonitrile on a dilution plate, from which 350 µL was transferred to a UV-plate and UV-absorption was read using a SpectraMax M5 (Molecular devices). The absorbance was blank-corrected and compared to the calibration curve to […]\nsolubility. […]\nlower solubility (2) compounds respectively in a 12.5 w/v% CAPTISOL® solution in water. […] Based on the known density of 12.5 % CAPTISOL® solution (d = 1.05755 g/mL at 25 °C), the precise weight of the resulting solution and so the required amount of water by weight was calculated. […] In duplicates, aliquots of the filtrates were taken and diluted with blank 12.5 % CAPTISOL® water solution in either a 1:14 (higher sol. compounds) or 1:7 (lower sol. compounds) ratio, 350 µL was transferred to a 96-Well Plate (Greiner, UV-star) then UV absorption (240-400 nm, 10 nm steps) was measured using a SpectraMax M5 (Molecular devices). […] The calculated concentrations are available in Table S4. […]\nThe bromodomain concentration in the eluates was measured by qPCR. […]"}, "[1]": {"test": "concentration in saturated 12.5% CAPTISOL solution", "assay_type": "physicochemical", "conditions": "filtered 12.5 w/v% CAPTISOL in water, st. dev. between technical replicates (n=2)", "experimental": "as §1\nsolubility. The wavelengths used for the calibration curve are available in Table S4.\nSample preparation in CAPTISOL® […]\nlower solubility (2) compounds respectively in a 12.5 w/v% CAPTISOL® solution in water. In a precisely tared vial, required amounts of compounds and CAPTISOL® were weighed out as solids. Based on the known density of 12.5 % CAPTISOL® solution (d = 1.05755 g/mL at 25 °C), the precise weight of the resulting solution and so the required amount of water by weight was calculated. The water was added portion wise with agitation, vortexing and sonication cycles in between additions. The saturated solutions were then filtered (Millex-GV 13 mm, 0.22 µm). In duplicates, aliquots of the filtrates were taken and diluted with blank 12.5 % CAPTISOL® water solution in either a 1:14 (higher sol. compounds) or 1:7 (lower sol. compounds) ratio, 350 µL was transferred to a 96-Well Plate (Greiner, UV-star) then UV absorption (240-400 nm, 10 nm steps) was measured using a SpectraMax M5 (Molecular devices). The absorption was blank-corrected, compared to the calibration curve obtained during the solubility measurement method above and finally corrected for the dilution ratio to obtain the compound concentration in the saturated 12.5 % CAPTISOL® solution. The calculated concentrations are available in Table S4.\nBROMOscan™ assays (provided by Eurofins DiscoverX, US)1,2 […]\ncoli host derived from the BL21 strain. […]"}},
  "data": [
    {"smiles": "Cc1cc2c(NC(=O)c3cc(NC(=O)[C@H]4CCCO4)cc(-c4ccn(C)n4)c3)cccc2nn1", "note": "[Compound 5]", "values": [
      {"measurement": "GI30", "setting": "MRC5 cells", "result": "> 10", "unit": "µM"},
      {"measurement": "selectivity over BRD4(1) and a broader panel of BRD-containing proteins", "setting": "panel of 32 bromodomains", "result": "highly selective"},
      {"measurement": "Conc. in 12.5% Captisol sol.", "setting": "[1]", "result": "790 ± 18", "unit": "µM"}
    ]},
    {"smiles": "Cc1cc2c(NC(=O)c3cc(NC(=O)c4ccco4)cc(-c4ccn(C)n4)c3)cccc2nn1", "note": "[Compound 2]", "values": [
      {"measurement": "GI30", "setting": "MRC5 cells", "result": "> 10", "unit": "µM"},
      {"measurement": "selectivity over BRD4(1) and a broader panel of BRD-containing proteins", "setting": "panel of 32 bromodomains", "result": "highly selective"},
      {"measurement": "Conc. in 12.5% Captisol sol.", "setting": "[1]", "result": "160 ± 1", "unit": "µM"}
    ]}
  ]
}
